Laboratory results: PubChem BioAssay (NCI)
Values joined by “and” are separate entries in the source; they are usually repeats but may differ in a detail not shown here. Equal entries are not always repeated.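 The compound was tested at five concentrations on cells cultured in 96-well plates, with a 48-hour exposure period. Here, GI50 denotes the concentration required for 50% inhibition of growth. The concentration for full growth arrest is given as TGI.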

Columns and labels:
Assay in all cases: NCI anticancer screen, dose series, 48 h
[1] = test system: SW-620 colon
[2] = test system: SN12C renal
[3] = test system: CCRF-CEM leukemia
[4] = test system: OVCAR-3 ovarian
[5] = test system: HCT-116 colon
[6] = test system: OVCAR-8 ovarian
[7] = test system: SNB-19 CNS
[8] = test system: PC-3 prostate
[9] = test system: HS 578T breast
[10] = test system: SK-MEL-28 melanoma

Compound | TGI [1] | TGI [2] | TGI [3] [µM] | TGI [4] | TGI [5] | TGI [6] | TGI [7] | TGI [8] | TGI [9] [µM] | TGI [10] | GI50 [1] [µM] | GI50 [2] [µM] | GI50 [3] | GI50 [4] | GI50 [8] [µM] | GI50 [6] | GI50 [9] [µM] | GI50 [7] | GI50 [5] [µM] | GI50 [10] [µM]
CCc1ccccc1-n1c2nc(=O)n(C)c(=O)c-2nc2ccccc21 | 27.3 µM | 26.6 µM | 39.3 | 6.79 µM | 25.8 µM | 21.6 µM | 23.5 µM |  |  |  |  |  |  |  |  |  |  |  |  | 
O=C(O)C(Br)C(Br)c1ccccc1[N+](=O)[O-] (stereo not drawn) | > 100 µM | > 100 µM |  | > 100 µM | > 100 µM | > 100 µM | > 100 µM | > 100 µM | > 100 | > 100 µM |  |  |  |  |  |  |  |  |  | 
COC1(OC)CC2C(=O)N(Cc3ccccc3)C1CC2S(=O)(=O)c1ccccc1 (stereo not drawn) | > 100 µM | > 100 µM | > 100 | > 100 µM | > 100 µM | > 100 µM | > 100 µM |  |  | > 100 µM |  |  |  |  |  |  |  |  |  | 
CCOC(=O)C1=C(NC(C)(C)C)OCC1=O | > 100 µM | > 100 µM |  | > 100 µM | > 100 µM | > 100 µM | > 100 µM |  |  | > 100 µM |  |  |  |  |  |  |  |  |  | 
NS(=O)(=O)c1ccc(NC(=O)CC(=O)Nc2ccc(S(N)(=O)=O)cc2)cc1 | > 100 µM | > 100 µM | > 100 | > 100 µM | > 100 µM | > 100 µM | > 100 µM |  |  | > 100 µM |  |  |  |  |  |  |  |  |  | 
COc1ccc(OC)c(-c2cc(-c3ccccc3)nn2-c2ccc(S(N)(=O)=O)cc2)c1 | 33.4 µM | 25 µM | > 100 | 19 µM |  | 27 µM |  | 28 µM | 59.1 |  | 12.7 | 12.5 | 4.17 µM | 5.91 µM | 12.2 | 10.2 µM | 18.9 |  |  | 
C[C@H]1COC2(c3ccccc3)CCC(=O)N12 (stereo partly drawn) | > 100 µM | > 100 µM | > 100 | > 100 µM | > 100 µM | > 100 µM | > 100 µM |  |  | > 100 µM |  |  |  |  |  |  |  |  |  | 
CC(C)c1cc(CNc2nc(Nc3cc(C4CC4)[nH]n3)cc(N3CCN(C)CC3)n2)on1 | > 10 µM and 10.8 µM | > 10 µM and 15.1 µM | > 100 | > 10 µM and 4.1 µM | > 10 µM and 44.6 µM | > 10 µM and 14.8 µM | > 10 µM and 23.3 µM | > 10 µM and 7.02 µM |  | > 10 µM and 4.59 µM |  |  | 4.62 µM and 1.02 µM | 2.14 µM and 0.256 µM |  | 3.27 µM and 0.42 µM |  | 4.59 µM and 0.471 µM |  | 
COC(=O)C1=C(c2cc(OC)c(OC)c(OC)c2)OC(c2cc(OC)c(OC)c(OC)c2)C1COC(C)=O (stereo not drawn) | > 100 µM | > 100 µM | > 100 | > 100 µM | > 100 µM | > 100 µM | > 100 µM |  |  | > 100 µM |  |  |  |  |  |  |  |  |  | 
O=C(/C=C/c1c(O)ccc2ccccc12)c1cccc2ccccc12 | > 51.6 µM | > 100 µM | > 67.8 | > 100 µM | > 100 µM | > 100 µM | > 100 µM |  |  | > 100 µM |  |  |  |  |  |  |  |  |  | 
Cc1[nH]c(=O)nc(CC(O)(c2ccccc2)c2ccccc2)c1-c1ccccc1 | > 100 µM | > 100 µM | > 100 | > 100 µM | > 100 µM | > 100 µM | > 100 µM |  |  | > 100 µM |  |  |  |  |  |  |  |  |  | 
BrC(Br)(Br)c1cnc2ccccc2n1 |  | 14.1 µM | 2.42 | 3.04 µM | 2.66 µM | 4.07 µM | 16.1 µM | 9.89 µM | 7 | 4.24 µM |  | 3.71 | 0.49 µM | 1.5 µM | 2.44 | 1.76 µM | 2.47 | 3.33 µM | 1.1 | 1.85
CN1CCN(Cc2ccc(NC(=O)c3[nH]ncc3Nc3ncnc4sccc34)cc2)CC1 | > 100 µM | > 100 µM |  | 2.54 µM |  | > 100 µM | > 100 µM | > 100 µM | 2.93 | > 100 µM | 0.315 | 0.361 |  | 0.306 µM | 0.394 | 0.413 µM | 0.0604 | 0.335 µM |  | 0.857
Cc1c(C2Cc3ccccc3N2C(=O)/C=C\C(=O)O)c2ccccc2n1C (stereo not drawn) | 41.5 µM | 45.6 µM | > 100 | 43.1 µM | 94.1 µM | 43.6 µM | 37.2 µM |  |  |  |  |  |  |  |  |  |  |  |  | 
O=C1OC(c2ccccc2)=N/C1=C\c1c(O)cc(O)cc1O | > 100 µM | > 100 µM | > 100 | > 100 µM | > 100 µM | > 100 µM | > 100 µM |  |  | > 100 µM |  |  |  |  |  |  |  |  |  | 
CN(C)CCOc1nc2c3cccnc3cc(-c3cccc(Cl)c3)c2c2ncccc12 | 2.19 µM | 7.03 µM | 6.73 | 4.19 µM | 2.32 µM |  | 4.32 µM | 5.95 µM | 5.06 | 3.07 µM | 0.684 | 1.51 | 1.26 µM | 1.52 µM | 2.17 |  | 1.97 | 1.6 µM | 1.06 | 1.65
O=C(CCC(=O)N/N=C/c1ccccc1O)N/N=C/c1ccccc1O | > 100 µM | > 100 µM |  | > 100 µM | > 100 µM | > 100 µM | > 100 µM |  |  | > 100 µM |  |  |  |  |  |  |  |  |  | 
CN(/N=C/c1ccnc2ccccc12)c1ccc([N+](=O)[O-])cc1[N+](=O)[O-] | > 100 µM | > 100 µM | > 100 | > 100 µM |  | > 100 µM | > 100 µM |  |  | > 100 µM |  |  |  |  |  |  |  |  |  | 
CC(C)=CCC/C(C)=C/CC/C(=C/COP(=O)(OCc1ccc([N+](=O)[O-])o1)N(C)CCCCCl)CC=C(C)C (stereo not drawn) | 6.98 µM | 12.3 µM | > 100 | 29.4 µM | 7.97 µM | 13.5 µM | 41.9 µM | 24.3 µM |  | 43 µM | 2.92 | 2.98 | 6.16 µM | 11.6 µM | 8.62 | 3.04 µM |  | 19.5 µM | 2.06 | 19.6
CC1=Nc2c([nH]c(=S)[nH]c2=O)NC(c2ccc(Cl)c(Cl)c2)C1 (stereo not drawn) | > 57.7 µM | 43.9 µM | > 100 | 38.3 µM | 30.1 µM | 38.2 µM | > 59.8 µM |  |  | 36.7 µM |  |  |  |  |  |  |  |  |  | 
N#CCC(=O)N/N=C1/C(=O)NC(=O)C(=O)C1c1nc2ccccc2s1 (stereo not drawn) | > 100 µM | > 100 µM | > 100 | > 100 µM | > 100 µM | > 100 µM | > 100 µM |  |  | > 100 µM |  |  |  |  |  |  |  |  |  | 
